Assay results as given in patent US20110229411A1, “USE OF P2X7 PATHWAY FOR ASSESSING THE SENSITIVITY OF A SUBJECT TO A CANCER TREATMENT” (INSTITUT GUSTAVE ROUSSY, priority 2008, published 2011).

Assays:
[1] = system: T cell priming for IFNγ production; assay: Priming assay: dying EG7 cells injected into the footpad, IFNγ secretion of restimulated popliteal lymph node cells; format: in vivo, mice
Procedure: 1.10^6 CT26, EG7, or B16F10 cells were either left untreated or treated with doxorubicin (20 μM) or oxaliplatin (5 μg/ml) for 24 h. Cells were then injected into the footpad of syngenic mice. In some experiments, 20 or 100 μg of IL-1Ra (Anakinra) or 250 ng of recombinant murine IL-1β (or 250 ng of IL-6 or 50 ng of IL-12) was injected along with dying tumor cells into the footpad of mice. Alternatively, DC were cocultured with EG7 cells for 2 hours, followed by the purification of CD11c^+ cells with anti-CD11c mAb coupled to magnetic beads (Miltenyi Biotec, Paris, France) and injection of these purified DC into the footpad. Five days later, gangliocytes from popliteal lymph nodes were harvested, seeded in 96 U-well plates (3.10^5 cells per well), and restimulated with 1 mg/ml OVA protein. Restimulation with MCA205 or CT26 cells was performed using 3×10^4 tumor cells killed by 5 min heating at 42° C. followed by 1 cycle of freezing/thawing in liquid nitrogen. For B16F10, restimulation was achieved using gp100 peptide as previously described (Overwijk et al., 1998). As a positive control of T cell priming, mice were injected with OVA protein (1 mg) (or gp100 for B16F10) and the association of CpG (10 μg) and Poly I:C (5 μg). For CT26 priming experiments, cell lysate plus LPS (250 ng) was used as a positive control. Supernatants were harvested 72 hours later, and IFNγ secretion was assessed by ELISA. Alternatively, cells were stimulated with PMA (10 ng/ml) and ionomycin (1 μg/ml) for 1 h, followed by the addition of brefeldin A (10 μg/ml for 6 h at 37° C.) (Apetoh et al., 2007), surface staining with Abs specific for CD3, CD4 or CD8, fixation and permeabilization (Cytofix/cytoperm kit) and then labeled with antibodies specific for IFNγ. Immunofluorescence was analyzed on a LSRII flow cytometer (BD Biosciences) with FACSDiva software.

[2] = system: T cell priming for IFNγ production; assay: Priming assay with dying CT26 cells, restimulation with CT26 or MCA205 tumor lysate, IFNγ production; format: in vivo; conditions: IL-1Ra 100 μg co-inoculated, WT mice
Procedure: FIG. 14: The immunogenicity of cell death requires active IL-1β. Mice were immunized with PBS or dying CT26 tumor cells treated with doxorubicin or freeze thawing and LPS. Dying CT26 were co-inoculated together with IL-1Ra (100 μg) into the […] of WT mice. Five days later, mice (n=5 mice/group) were sacrificed to harvest popliteal lymph nodes for in vitro restimulation with CT26 or MCA205 tumor lysate and assessment of IFNγ production. *p<0.05.
1.10^6 CT26, EG7, or B16F10 cells were either left untreated or treated with doxorubicin (20 μM) or oxaliplatin (5 μg/ml) for 24 h. Cells were then injected into the footpad of syngenic mice. In some experiments, 20 or 100 μg of IL-1Ra (Anakinra) or 250 ng of recombinant murine IL-1β (or 250 ng of IL-6 or 50 ng of IL-12) was injected along with dying tumor cells into the footpad of mice. Alternatively, DC were cocultured with EG7 cells for 2 hours, followed by the purification of CD11c^+ cells with anti-CD11c mAb coupled to magnetic beads (Miltenyi Biotec, Paris, France) and injection of these purified DC into the footpad. […] Supernatants were harvested 72 hours later, and IFNγ secretion was assessed by ELISA. […] Immunofluorescence was analyzed on a LSRII flow cytometer (BD Biosciences) with FACSDiva software.

[3] = system: EL4 thymoma tumors; assay: Chemotherapy of EL4 tumors established in mice; format: in vivo; conditions: co-treatment, data not shown
Procedure: (§1) FIG. 17. The anti-cancer activity of oxaliplatin depends on P2X7 and the NALP3 inflammasome. FIG. 17a,b,c. Therapeutic efficacy of oxaliplatin on established tumors depends on the integrity of the immune system on the P2X7/NALP3/casp-1 axis. EL4 thymoma tumors were established in syngenic mice bearing the indicated genotypes (a-c) or injected with anti-CD8 antibody (a). When the tumor reached 70-90mm^2 in size, mice were either left untreated or were treated with oxaliplatin. Each treatment group included 5-6 mice (X±SEM), and each experiment was repeated three times with similar results. * p<0.05. d. Caspase 1 is required for the immune response promoted by oxaliplatin chemotherapy. EG7 tumors established in the thigh were treated with one systemic injection of oxaliplatin. Inguinal lymph node cells were harvested 5 days later, and the gangliocytes were restimulated in vitro. IFNγ secretion was assessed by ELISA. Results (means of triplicates ±SEM, n=3) are representative of one typical experiment out of three. ^*P<0.01. FIG. 17d. The efficacy of anthracyclines against established colon cancer is dependent on IL-1β. CT26 tumors established for 10 days in WT mice were treated with one local injection of doxorubicin in the absence or presence of neutralizing anti-IL-1β Ab (n=10/group, *p<0.05). FIG. 17e. A single-nucleotide polymorphism (SNP) in P2X7 (rs3751143) affects the long-term efficacy of conventional anti-cancer therapy in breast cancer patients. Comparative Kaplan-Meier estimates of time to metastasis in two groups of patients bearing the normal (Glu496Glu) or loss-of-function (Glu496Ala) P2X7 alleles. The time to metastatic progression was analyzed in 225 women with non-metastatic breast cancer who received adjuvant chemotherapy with anthracylines.
Wild type or loss-of-function C57BL/6 mice were injected s.c. with 10^6 EL4 cells into the right flank. Alternatively, wild-type BALB/c mice were injected with 5.10^5 CT26 cells into the right flank. Mice were then randomly assigned to treatment groups of 4-6 mice each. The tumor surface was monitored using a caliper. When tumor size reached 70-90 mm^2 for EL4 (9-12 days post-injection) or 60-80 mm^2 for CT26 (8-10 days post-injection), mice received chemotherapy (Apetoh et al., 2007). Mice bearing EL4 tumors were injected with oxaliplatin (5 mg/kg i.p), while mice bearing CT26 tumors were injected with doxorubicin (50 μl, 4 mM i.t). In some experiments, CT26 tumor-bearing mice received two injections (on day 0 and day 2 after the commencement of chemotherapeutic treatment) of IL-1Ra (McIntyre et al., 1991) (100 μg), anti-IL-1 antibody (100 μg) or hamster serum as a control.

[4] = system: CT26 tumors; assay: Chemotherapy of CT26 tumors established in mice; format: in vivo; conditions: doxorubicin i.t.; 100 μg on day 0 and day 2, WT mice
Procedure: as §1, with “The efficacy of anthracyclines against established colon cancer is dependent on IL-1β. CT26 tumors established for 10 days in WT mice were treated with one local injection of doxorubicin in the absence or presence of neutralizing anti-IL-1β Ab (n=10/group, *p<0.05). FIG. 17e. A single-nucleotide polymorphism (SNP) in P2X7 (rs3751143) affects the long-term efficacy of conventional anti-cancer therapy in breast cancer patients. Comparative Kaplan-Meier estimates of time to metastasis in two groups of patients bearing the normal (Glu496Glu) or loss-of-function (Glu496Ala) P2X7 alleles.” left out
Wild type or loss-of-function C57BL/6 mice were injected s.c. with 10^6 EL4 cells into the right flank. […] The tumor surface was monitored using a caliper. […]

[5] = system: CT26 colon cancer cells; assay: ATP assays on doxorubicin-treated tumor cells; format: cell-based, mouse; conditions: CT26, doxorubicin 20 μM
Procedure: (§2) FIG. 3: Identification of AT P release as a limiting factor of anti-cancer vaccination by dying CT 26 cells. FIG. 3a-b Idem as in FIGS. 1a and b, but using the mouse colon cancer CT26 exposed to doxorubicin. Data of one representative experiment out of three are depicted. FIG. 3. c-d. […] Mice were immunized with PBS or dying CT26 tumor cells. Dying CT26 were first treated with doxorubicin for 24 hours and were then incubated with antimycin A/deoxyglucose (A/D) for 20 min. Cells were washed after A/D exposure and before subcutaneous inoculation (c). Alternatively, dying CT26 were inoculated alone or together with oxiATP (d). Seven days later, mice (15 per group in a total of 3 distinct experiments) were inoculated with live syngeneic tumor cells and tumor growth was monitored. * p<0.05.
Plates were read in a Fluostar luminometer (BMG Labtech).

[6] = system: CT26 cells; assay: Cell death induction for vaccination, FACS analysis of Annexin V+ DAPI+ cells; format: cell-based, mouse; conditions: CT26, 20 μM doxorubicin, 24 hours
Procedure: Anti cancer vaccination was assessed using a previously described setting (Casares et al., 2005; Obeid et al., 2007). CT26 cells were cultured with either PBS or 20 μM doxorubicin, and MCA205 with either PBS or 1 μM mitoxantrone for 24 h. All these treatments led to ˜50% of Annexin V^+ DAPI^+ cells, as assessed by FACS analysis at 24 hours. After careful washes, cells were resuspended in sterile PBS. CT26 cells were incubated in the presence or in the absence of antimycin A and deoxyglucose (2 μg/ml and 30 mM, respectively) for 20 min, or in the presence or in the absence of Oxi-ATP ([…]). After 3 washes, 3×10^6 dying CT26 cells (or 3×10^5 MCA205 cells) were injected subcutaneously into the left flank of mice. In some experiments, 100 μg of IL-1Ra (Anakinra) was injected along with the dying cells. Seven days later, mice were rechallenged into the right flank with 5×10^5 live CT26 cells (or, alternatively, 3.10^4 live MCA205 cells). Tumor growth was then monitored weekly.

[7] = system: CT26 cells; assay: Anti-cancer vaccination with dying CT26 cells and rechallenge with live tumor cells; format: in vivo, mice; conditions: doxorubicin-treated CT26, rechallenge with live cells seven days later
Procedure: as §2
Anti cancer vaccination was assessed using a previously described setting (Casares et al., 2005; Obeid et al., 2007). CT26 cells were cultured with either PBS or 20 μM doxorubicin, and MCA205 with either PBS or 1 μM mitoxantrone for 24 h. All these treatments led to ˜50% of Annexin V^+ DAPI^+ cells, as assessed by FACS analysis at 24 hours. After careful washes, cells were resuspended in sterile PBS. […] Tumor growth was then monitored weekly.

[8] = system: OT-1 CD8+ T cells; assay: In vitro stimulation of OT-1 cells by BM-DC loaded with oxaliplatin-treated EG7; format: cell-based, mouse; conditions: rIL-1β 100 ng/ml or IL-12 10 ng/ml added to cocultures
Procedure: (§3) FIG. 15. IL-1β-dependent CTL priming by dying tumor cells in vitro and in vivo. FIG. 15a. MyD88 is required at the level of the host but not that of the APC. DC from WT mice were first loaded with antigen (OVA holoprotein with C/P adjuvant, live or oxaliplatin-treated EG7 cells) and then injected into the footpad of into WT or MyD88^−/− recipients (n=6 mice/group). Five days later, the local immune response was measured as in FIG. 2d,e. Results of one typical experiment out of three are depicted. FIG. 15b. Casp-1 and IL-1β-dependent OT-I priming in vitro. The differentiation of IFNγ producing CD8^+ OT-1 cells was induced by incubating naïve OVA-specific TCR transgenic OT-1 lymphocytes with syngeneic BM-DC (derived from WT or Casp-1^−/− mice) that were loaded with oxaliplatin-treated EG7 for 2 days in vitro. […] Exogenous addition of rIL-1β (100 ng/ml) or IL-12 (10 ng/ml) to cocultures of Casp-1^−/− DC loaded with dying tumor cells and incubated with OT1 restored T cell priming. […] FIG. 15c. Specific and direct polarizing effects of IL-1β on T lymphocytes in vitro. Purified CD3^+ CD8^+ T cells derived from naïve WT mice were stimulated with anti-CD3 and anti-CD28 mAb for 5 days in the presence of the indicated cytokines (10 ng/ml for IL-12p70, 100 ng/ml for IL-1β, IL-6 and TNFα) -and IFNγ production was measured as in FIG. 3b. FIG. 15d. […]

[9] = system: CD3+ CD8+ T cells; assay: In vitro stimulation of CD8+ T-cells with anti-CD3 and anti-CD28 mAb plus cytokines; format: cell-based, mouse; conditions: CD3 plus CD28 cross-linking; 10 ng/ml IL-12p70, 100 ng/ml IL-1β, IL-6, TNFα
Procedure: as §3

With “IL-1Ra: recombinant IL-1 receptor antagonist, Kineret Anakinra (Amgen)” the “T cell priming in vivo by oxaliplatin-treated EG7 cells (IFNγ after restimulation with OVA)” value ([1]; IL-1Ra co-injected into the footpad) was “failed to prime T cells in vivo”, the “cytoplasmic IFNγ staining of CD3+CD8+ T lymphocytes” value ([1]; IL-1Ra co-injected, restimulation with PMA-ionomycin, flow cytometry) was “failed to stain positively for cytoplasmic IFNγ” and the “tumor-specific IFNγ response of T cells primed by dying CT26 cells” value [2] was “abolished”. The “effect on the response of EL4 tumors to oxaliplatin” value [3] was “blunted the response” and the “effect on the response of CT26 tumors to anthracyclines” value [4] was “blunted the response”.

For `COc1cccc2c1C(=O)c1c(O)c3c(c(O)c1C2=O)C[C@@](O)(C(=O)CO)C[C@@H]3O[C@H]1C[C@H](N)[C@H](O)[C@H](C)O1` [doxorubicin], the “release of ATP” value [5] was “released ATP” and the “Annexin V+ DAPI+ cells” value [6] was ~50%.

With `Nc1ncnc2c1ncn2[C@@H](C=O)O[C@@H](C=O)COP(=O)(O)OP(=O)(O)OP(=O)(O)O` [oxiATP, 2′,3′-dialdehyde derivative of ATP] the “T cell priming triggered by OVA protein plus adjuvant” value ([1]; OVA with PolyI:C+CpG in presence of oxiATP) was “did not affect T cell priming”, the “T cell priming by oxaliplatin-treated EG7 cells” value ([1]; cells admixed with oxiATP, footpad, C57Bl/6 mice) was “abolished T cell priming” and the “efficacy of vaccination with dying tumor cells” value [7] was “prevent the efficacy of vaccination”.

B1: IL-1β: recombinant mouse IL-1β from R&D Systems (protein)
chain: VPIRQLHYRLRDEQQKSLVLSDPYELKALHLNGQNINQQVIFSMSFVQGEPSNDKIPVALGLKGKNLYLSCVMKDGTPTLQLESVDPKQYPKKKMEKRFVFNKIEVKSKVEFESAEFPNWYISTSQAEHKPVFLGNNSGQDIIDFTMESVSS
In the case of B1, the “T cell priming in Nalp3−/− or Casp1−/− mice” value ([1]; cytokine co-injected with oxaliplatin-treated EG7: rIL-1β 250 ng, rIL-12 50 ng, rIL-6 250 ng per footpad) is reported as “restored deficient T cell priming”, the “priming capacity of Casp-1−/− DC for OT-1 cells (IFNγ)” value [8] is reported as “restored the priming capacity” and the “IFNγ production by naive CD3+CD8+ splenic T cells” value [9] is reported as “failed to produce IFNγ, unless IL-113”.
